Results as given in paper PMC11926880, “Procognitive Potential of Neuroprotective Triazine 5-HT6 Receptor Antagonists Tested on Chronic Activity In Vivo in Rats: Computer-Aided Insight into the Role of Chalcogen-Differences on the Pharmacological Profile” (ACS Chemical Neuroscience, 2025).
Like-named read-outs stand apart in the source and are kept apart here.

How the values were obtained:
[1] = tested on: SH-SY5Y cells; test: MTS cell viability assay 27 h; assay type: cell-based, human; conditions: for IC50: SH-SY5Y
Method: This study used the human neuroblastoma cell line SH-SY5Y (ATCC no. CRL-2266) to investigate the effect on the neuronal cells. The cells (8 × 10^3 cells/100 μL/well) were seeded in transparent 96-well plates (Thermo Scientific, Nunc, no. 161093) in DMEM/F12 (Gibco, no. 11039021) supplemented with 10% FBS (Gibco, no. 10500-064) and cultured overnight. […] Treatment with the compounds was performed for 27 h. After incubation, the cell viability was examined using an MTS-based CellTiter96 AQueous One Solution Cell Proliferation Assay (Promega, Madison, WI, USA) following the manufacturer’s protocol. Briefly, 20 μL of MTS solution was pipetted into each well containing 100 μL of culture or culture medium (negative control) and incubated at 37 °C for 1 h. The absorbance was measured at 490 nm using a Tecan Spark’s multimode plate reader (Tecan, Männedorf, Switzerland). A reference wavelength of 630 nm was used to subtract the background.

[2] = tested on: SH-SY5Y cells; test: qRT-PCR of neurodegeneration-associated genes; assay type: cell-based, human; conditions: 10 and 50 μM, 24 h
[3] = tested on: HT-22 cell line; test: protection against Aβ1–42, cell membrane damage (ToxiLight); assay type: cell-based, mouse; conditions: 10 μM pretreatment 1 h, Aβ1–42 35 μM 16 h
Method: Cells were cultured in Dulbecco’s modified Eagle’s Medium-high glucose (DMEM, GlutaMAX ThermoFisher) supplemented with 10% inactivated fetal bovine serum heat (Thermo Fisher), 100 IU/mL penicillin (Merck), and 100 μg/mL streptomycin (Merck). Cells were cultured in flasks (area 175 cm^2, Nunc) and incubated at 37 °C, 5% CO2. To measure the neuroprotective effect against Aβ1–42, cells were placed in a 96-well culture plate (5 × 10^3 cells per well, Falcon). To measure the toxicity of tested compounds, cells were placed in a 96-well culture plate (5 × 10^3 and 2 × 10^4 cells per well, Falcon).
Stock solutions were prepared at a concentration of 10 mM for the tested compounds. A minimum of 1 mg of each tested compound was weighed and dissolved in an appropriate volume of dimethyl sulfoxide (DMSO). Serial dilutions were prepared in DMSO, and then, the diluted compounds were transferred to phosphate-buffered saline (PBS), mixed, and put into a medium with adherent cells. Before the assays, eventual precipitation or opalescence was checked. […]
Then, 20 μL of adenylate kinase detection reagent was added. The luminescence was measured after 10 min of incubation with a plate reader, POLARstar Omega (BMG Labtech). The results are expressed as a percentage of the control (Aβ1–42), corresponding to the percentage of dead cells concerning the control sample.

[4] = tested on: rats; test: NORT after 21 day administration, discrimination index; assay type: in vivo, rat; conditions: 21 days; for reversal of (+)MK-801-induced memory disturbances (DI): (+)MK-801 0.1 mg/kg
Method: Standard laboratory food (LSM-B) and filtered water as well as environment enrichment were freely available. Animals were randomly divided into treatment groups using a computer-based random order generator. All of the experiments were performed by two observers unaware of the treatment applied between 9:00 and 14:00 on separate groups of animals.
In the NOR test (NORT), rats were randomly divided into experimental groups (n = 8/group). […] All compounds were prepared immediately before administration and were injected intraperitoneally (i.p.) in a constant volume of 2 mL/kg. […] The control group received 1% Tween 80 on the same schedule.
The test was carried out according to the method described by Ennaceur.[46] NORT was conducted in two black-painted wood boxes (60 cm × 60 cm × 60 cm). A video camera mounted above the boxes recorded all experiments. Two days before the test, the rats were placed in the empty experimental boxes for 5 min as a habituation to the test area. On the third day, the test was performed in 2 trials lasting for 3 min at one-hour intervals. First session, familiarization (T1) with two identical objects (A1 and A2) located in the opposite corners of the boxes, approximately 10 cm from the walls, and second trial, recognition (T2) with one familiar (A) and one novel object (B). Metal cans and glass jars with sand were used as the objects. The boxes were cleaned and dried after each measurement. The exploration time (E) of the objects (such as looking, licking, sniffing, or touching while sniffing) during T2 was measured, and the discrimination index (DI) was calculated according to the following formula: DI = (EB – EA)/(EA + EB).
The normality of data distribution and the homogeneity of variance were checked using the Shapiro–Wilk’s test and Levene’s test, respectively. All behavioral results are shown as the means ± SEM.

[5] = set-up: method as in PMID 38190615, PMID 35228010; conditions: cited from earlier work
[6] = set-up: method as in PMID 38190615, PMID 35228010; conditions: LC/MS after biotransformation in rLMs; cited from earlier work
[7] = tested on: HepG2; set-up: method as in PMID 38190615, PMID 35228010; conditions: tested at 0.1–100 μM; cited from earlier work
[8] = set-up: method as in PMID 38190615, PMID 35228010; conditions: AMES test; cited from earlier work
[9] = tested on: ABCB1; set-up: method as in PMID 35228010; conditions: previous evidence; cited from earlier work
[10] = molecular target: 5-HT2AR; conditions: read-out: radioligand binding assay Ki; cloned receptors; cited from earlier work

With `CN1CCN(c2nc(N)nc(C(C)(C)Sc3ccc4ccccc4c3)n2)CC1` [WA-22, 4-(4-methylpiperazin-1-yl)-6-(2-(naphthalen-2-ylthio)propan-2-yl)-1,3,5-triazin-2-amine] the IC50 ([1]; Homo sapiens, 27 h, read-out: IC50 x̅ ± SD, MTS, SH-SY5Y, 27 h of exposure) was over 200 µM, the “effect on cell viability” value ([1]; all tested concentrations (0–50 μM), 27 h) was “did not affect cell viability” and the IC50 ([1]; read-out: IC50 x̅ ± SD, MTS, 27 h of exposure) was 238 ± 15 µM. The NRF2 transcription [2] was “neither WA-22 nor PPK-32 were able to stimulate its transcription”, the “expression of NQO1, SOD1, and HO1” value [2] was “induces the expression of the same genes, although with a lower significance and increase” and the “expression of pro-inflammatory gene NFkB” value [2] was “neither WA-22 nor PPK-32 were able to downregulate”. For the same molecule, the “protection of cell integrity against membrane destruction caused by Aβ1–42” value [3] was “neuroprotective activities”, the “influence on memory compared to vehicle-treated rats (DI)” value ([4]; 1 mg/kg/day i.p., without (+)MK-801) was “No memory changing” and the “reversal of (+)MK-801-induced memory disturbances (DI)” value ([4]; 1 mg/kg/day i.p.) was “significantly reversed”. For the same molecule, the “reversal of (+)MK-801-induced memory disturbances (DI)” value ([4]; 3 mg/kg/day i.p.) was “also observed for a dose of 3 mg/kg, but memory restoration was not at the same level as that of control rats”, the “permeability PAMPA Pe” value [5] was 13.8 × 10^–6 cm/s and the “metabolic stability, % of remaining structure” value [6] was 74%. The “hepatotoxic (statistically significant HepG2 viability decrease)” value [7] was over 25 µM, the mutagenic [8] was “no” and the ABCB1 inhibition [9] was “potent inhibitor of ABCB1”. For the same molecule, the Ki [10] was 0.039 µM.
